Experiments:
SK-BR-3 = test: Antiproliferative activity against human SKBR3 cells after 72 hrs by MTS-PMS assay; format: functional, cell-based; details: SK-BR-3, 72 h
MCF7 = test: Antiproliferative activity against human MCF7 cells after 72 hrs by MTS-PMS assay; format: functional, cell-based; details: MCF7, 72 h

Compound	IC50 (SK-BR-3) [µM]	IC50 (MCF7) [µM]
COc1cc(/C=C/c2cc(/C=C/c3ccc(O)c(OC)c3)on2)ccc1O	4	1.76
CCOc1ccc(/C=C/c2n[nH]c(/C=C/c3ccc(OCC)c(OC)c3)c2/C=C/C(=O)OC)cc1OC	5.99	11.4
COc1ccc(/C=C/c2cc(/C=C/c3ccc(OC)c(OC)c3)on2)cc1OC	> 100	59.5
CCOC(=O)CCc1c(/C=C/c2ccc(OC)c(OC)c2)noc1/C=C/c1ccc(OC)c(OC)c1	> 100	> 100
CCOC(=O)CCc1c(/C=C/c2ccc(OC)c(OC)c2)n[nH]c1/C=C/c1ccc(OC)c(OC)c1	11.7	10.1
CCOC(=O)CCC(C(=O)/C=C/c1ccc(O)c(OC)c1)C(=O)/C=C/c1ccc(O)c(OC)c1	4.38	1.96
CCOC(=O)CCc1c(/C=C/c2ccc(O)c(OC)c2)n[nH]c1/C=C/c1ccc(O)c(OC)c1	5.6	6.01
CCOC(=O)CCc1c(/C=C/c2ccc(O)c(OC)c2)noc1/C=C/c1ccc(O)c(OC)c1	13.9	13.2
COc1cc(/C=C/c2cc(/C=C/c3ccc(O)c(OC)c3)[nH]n2)ccc1O [CURCUMIN PYRAZOLE]	0.258	4.19
COc1cc(/C=C/C(=O)CC(=O)/C=C/c2ccc(O)c(OC)c2)ccc1O [CURCUMIN]	2.11	5.58
COc1ccc(/C=C/C(=O)CC(=O)/C=C/c2ccc(OC)c(OC)c2)cc1OC [TETRAMETHOXYCURCUMIN]	0.955	1.07

More lines, now with the values ahead:

IC50 (SK-BR-3) [µM]	IC50 (MCF7) [µM]	Compound
1.02	1.09	COc1ccc(/C=C/C(=O)C(C)C(=O)/C=C/c2ccc(OC)c(OC)c2)cc1OC
> 100	8.16	COc1ccc(/C=C/c2n[nH]c(/C=C/c3ccc(OC)c(OC)c3)c2C)cc1OC
> 100	49.5	COC(=O)/C=C/c1c(/C=C/c2ccc(OC)c(OC)c2)n[nH]c1/C=C/c1ccc(OC)c(OC)c1
> 100	> 100	COc1ccc(/C=C/c2n[nH]c(/C=C/c3ccc(OC)c(OC)c3)c2/C=C/CO)cc1OC
42.5	55.7	COc1ccc(/C=C/c2noc(/C=C/c3ccc(OC)c(OC)c3)c2C)cc1OC
1.58	12.7	COc1ccc(/C=C/c2cc(/C=C/c3ccc(OC)c(OC)c3)[nH]n2)cc1OC
1.96	1.28	CCOC(=O)/C=C/C(C(=O)/C=C/c1ccc(OC)c(OC)c1)C(=O)/C=C/c1ccc(OC)c(OC)c1
1.24	0.796	COc1ccc(/C=C/C(=O)C(/C=C/CO)C(=O)/C=C/c2ccc(OC)c(OC)c2)cc1OC
0.564	0.512	COC(=O)/C=C/C(C(=O)/C=C/c1ccc(OC)c(OC)c1)C(=O)/C=C/c1ccc(OC)c(OC)c1
> 100	> 100	CCOC(=O)CCC(C(=O)/C=C/c1ccc(OC)c(OC)c1)C(=O)/C=C/c1ccc(OC)c(OC)c1
52.6	39.9	COc1ccc(/C=C/c2n[nH]c(/C=C/c3ccc(OC)c(OC)c3)c2/C=C/C(N)=O)cc1OC
9.83	5.35	COc1ccc(/C=C/C(=O)C(/C=C/C(N)=O)C(=O)/C=C/c2ccc(OC)c(OC)c2)cc1OC

From ChEMBL document CHEMBL1139274, “Synthesis and evaluation of electron-rich curcumin analogues” (Bioorg Med Chem, 2009)
